We go through 48 compounds from patent EP1200395B1, “UREA DERIVATIVES AS INHIBITORS OF CCR-3 RECEPTOR” (KIRIN BEER KABUSHIKI KAISHA, priority 1999, dated 2001).

The structures appear in SMILES notation.

For experiment [1], the target named is T1, CCR-3 (Homo sapiens, UniProt P51677).
T1 sequence (P51677 1-355): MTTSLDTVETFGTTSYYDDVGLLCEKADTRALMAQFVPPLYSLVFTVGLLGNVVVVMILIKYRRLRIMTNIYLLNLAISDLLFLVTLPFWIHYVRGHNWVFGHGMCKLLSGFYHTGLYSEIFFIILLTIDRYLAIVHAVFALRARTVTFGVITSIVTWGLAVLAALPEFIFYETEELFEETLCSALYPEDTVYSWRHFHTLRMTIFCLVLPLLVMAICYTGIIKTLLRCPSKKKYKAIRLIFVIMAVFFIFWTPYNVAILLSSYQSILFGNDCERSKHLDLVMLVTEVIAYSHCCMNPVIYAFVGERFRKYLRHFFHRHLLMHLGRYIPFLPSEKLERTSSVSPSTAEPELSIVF
The experiment is described as follows: Calcium mobilization assay (inhibition of eotaxin-induced intracellular calcium mobilization in CCR3/HEK293 cells). It counts as cell-based. Further details: expressed in transfected cells. The conditions noted are these: eotaxin 10 nM; for Ca^2+ mobilization 6.25 µg/ml (inhibition %): 6.25 µg/ml test compound, CCR3/HEK293 cells (Table 2a); for Ca^2+ mobilization 1.25 µg/ml (inhibition %): 1.25 µg/ml test compound, CCR3/HEK293 cells (Table 2b). Here is the method:
Compounds 93-162 used in this assay were synthesized by using the method described in Example 6.
CCR-3 transfectant cells (CCR3/HEK293) were isolated and resuspended with assay buffer (20 mM HEPES, 125 mM NaCl, 5 mM KCl; 0.5 mM glucose, 1 mM CaCl2, 1 mM MgCl2, 0.1 % BSA). After washing CCR3/HEK293 cells with assay buffer, cells were loaded with Fura-2/AM in assay buffer for 1 hour at room temperature. Cells were washed and resuspended with assay buffer at 5 x 10^6 cells/ml in assay buffer, and placed in a tissue culture plate (Falcon, no. 3296). Test compounds dissolved in DMSO were added to the wells, followed by eotaxin (10 nM at final concentration). Cells were excited at 340 nm and 380 nm in a fluorimeter (ARGUS50, FDSS2000, Hamamatsu Photonics) and the relative ratio of the fluorescence emitted at 510 nm was recorded. For a control, DMSO without a test compound was added. Intracellular calcium mobilization was calculated as described in Krogel C. et al. , FEBS Let. (1989) 243 , 41-46.

In experiment [2] the target is T1, CCR-3. The experiment is described as follows: Eotaxin-induced chemotaxis of CCR-3 transfectant cells (CCR3/U937). Further details: expressed in transfected cells; host or cells: U937. Particulars: 6.25 µg/ml test compound; eotaxin 1 x 10^-9 M; CCR3/U937 cells (Table 3b). It counts as cell-based.

For `O=C(O)CCCN(CCCNC(=O)Nc1ccc(Cl)c(C(F)(F)F)c1)CCC(c1ccccc1)c1ccccc1` [Compound 97], the “Ca^2+ mobilization 6.25 µg/ml (inhibition %)” value at CCR-3 [1] worked out at 57%. At CCR-3 [2], the “CCR-3 Transfectant Chemotaxis Assay 6.25 µg/ml (inhibition %)” value stood at 21%.
For `CCOC(=O)C1CC1CN(CCCNC(=O)Nc1ccccc1-c1ccccc1)CCc1ccc(C)cc1` (stereo not drawn) [Compound 112], in that order: 52% and 26%.
The like results for `CCOC(=O)C1CC1CN(CCCNC(=O)Nc1ccc(Br)cc1)C1CCCc2ccccc21` (stereo not drawn) [Compound 125] were, in that order, 65% and 90%.
For `O=C(NCCCN(CCc1ccccc1)C[C@@H]1CCCN1)Nc1ccccc1-c1ccccc1` [Compound 107], in that order: 53% and 55%.
With `Cc1ccc(CCN(CCCNC(=O)Nc2ccccc2-c2ccccc2)CC(C)C)cc1` [Compound 111], on CCR-3 [1], the “Ca^2+ mobilization 6.25 µg/ml (inhibition %)” value was found to be 51%. Further, the “CCR-3 Transfectant Chemotaxis Assay 6.25 µg/ml (inhibition %)” value on CCR-3 [2] was determined as 44%.
For `CCN(CCCNC(=O)Nc1cccc(C)c1)CCc1ccccc1` [Compound 137], in that order: 50% and 40%.
For `COc1ccc(CCN(CCCNC(=O)Nc2ccccc2-c2ccccc2)C[C@@H]2CCCN2)cc1OC` [Compound 110], in that order: 57% and 32%.
The like results for `CCOC(=O)C1CC1CN(CCCNC(=O)Nc1ccccc1-c1ccccc1)CCc1ccc(OC)c(OC)c1` (stereo not drawn) [Compound 109] were, in that order, 51% and 12%.
As to `Cc1ccc(CCN(CCCNC(=O)Nc2ccc(Br)cc2)CCCC(=O)O)cc1` [Compound 132], on CCR-3 [1], the “Ca^2+ mobilization 6.25 µg/ml (inhibition %)” value is listed as 55%. Besides, at CCR-3 [2], the “CCR-3 Transfectant Chemotaxis Assay 6.25 µg/ml (inhibition %)” value was determined as 11%.
Take `Cc1cccc(NC(=O)NCCCN(C[C@@H]2CCCN2)C2CCCc3ccccc32)c1` (stereo partly drawn) [Compound 135]: the “Ca^2+ mobilization 6.25 µg/ml (inhibition %)” value at CCR-3 [1] is 57%. The “CCR-3 Transfectant Chemotaxis Assay 6.25 µg/ml (inhibition %)” value on CCR-3 [2] was 12%.
Consider `Cc1cccc(NC(=O)NCCCN(Cc2ccc3c(c2)OCO3)CC(C)C)c1` [Compound 136], for which, on CCR-3 [1], the “Ca^2+ mobilization 6.25 µg/ml (inhibition %)” value is reported as 63%. The “CCR-3 Transfectant Chemotaxis Assay 6.25 µg/ml (inhibition %)” value at CCR-3 [2] stood at 32%.
For `COC(=O)CCCN(CCCNC(=O)Nc1ccccc1-c1ccccc1)CCc1ccccc1` [Compound 106], in that order: 57% and 47%.
As for `C=C(C)C[N+](CC)(CCCNC(=O)Nc1ccc(OC)cc1)CCc1cccc(Cl)c1.[I-]` (stereo not drawn) [compound 445], on CCR-3 [1], the “Ca^2+ mobilization 1.25 µg/ml (inhibition %)” value turned out to be 63%.
For the compound `O=C(NCCCN(CCc1ccc(Cl)c(Cl)c1)C[C@@H]1CCCN1)Nc1ccc(Br)cc1` [Compound 134], the “Ca^2+ mobilization 6.25 µg/ml (inhibition %)” value at CCR-3 [1] is given as 59%.
As to `COc1ccc(NC(=O)NCCCN(CCCSC)C2CCCc3ccccc32)c(OC)c1` (stereo not drawn) [Compound 157], the “Ca^2+ mobilization 6.25 µg/ml (inhibition %)” value at CCR-3 [1] was 53%.
The same measure, in the same setting: as for `Cc1ccc(CCN(CCCNC(=O)Nc2cccc(Cl)c2)CC(C)C)cc1` [Compound 151], the figure is 54%.
For `CC[N+](CCCNC(=O)Nc1ccc(Cl)c(Cl)c1)(CCOCCOC)CCc1cccc(Cl)c1.[I-]` (stereo not drawn) [compound 356], the “Ca^2+ mobilization 1.25 µg/ml (inhibition %)” value at CCR-3 [1] is 57%.
Still for that read-out and setting: as for `CC[N+](CCCNC(=O)Nc1ccc(OC)cc1)(CCc1ccc(Cl)c(Cl)c1)CC1CCC1.[I-]` (stereo not drawn) [compound 443], the figure is 69%.
Regarding `COc1cc(CN(CCCNC(=O)Nc2ccccc2-c2ccccc2)CCCSC)cc(OC)c1OC` [Compound 103], the “Ca^2+ mobilization 6.25 µg/ml (inhibition %)” value on CCR-3 [1] came to 53%.
`CC(C)CN(CCCNC(=O)Nc1ccc(Br)cc1)Cc1ccc(C(F)(F)F)cc1` [Compound 129]: on CCR-3 [1], the “Ca^2+ mobilization 6.25 µg/ml (inhibition %)” value stood at 50%.
Consider `CC[N+](CCCNC(=O)Nc1ccc(Cl)c(Cl)c1)(CCOCCOC)CCc1ccc(Cl)c(Cl)c1.[I-]` (stereo not drawn) [compound 358], for which the “Ca^2+ mobilization 1.25 µg/ml (inhibition %)” value on CCR-3 [1] was found to be 63%.
Consider `O=C(NCCCN(CCOCc1ccccc1)CCc1c[nH]cn1)Nc1cccc(Cl)c1` [Compound 148], for which the “Ca^2+ mobilization 6.25 µg/ml (inhibition %)” value at CCR-3 [1] amounted to 57%.
For `C=C(C)C[N+](CC)(CCCNC(=O)Nc1ccc(Cl)c(Cl)c1)CCc1ccc(Cl)cc1.[I-]` (stereo not drawn) [compound 364], the “Ca^2+ mobilization 1.25 µg/ml (inhibition %)” value at CCR-3 [1] turned out to be 66%.
Still for that read-out and setting: to `CC[N+](CCCNC(=O)Nc1ccc(C#N)cc1)(CCc1cccc(Cl)c1)CCC(C)C.[I-]` (stereo not drawn) [compound 393] belongs 56%.
On to `O=C(NCCCN(C[C@@H]1CCCN1)C1CCCc2ccccc21)Nc1cccc(Cl)c1` (stereo partly drawn) [Compound 150], for which the “Ca^2+ mobilization 6.25 µg/ml (inhibition %)” value on CCR-3 [1] is reported as 70%.
As for `Cc1cccc(NC(=O)NCCCN(CCc2ccc(Cl)c(Cl)c2)C[C@@H]2CCCN2)c1` [Compound 143], the “Ca^2+ mobilization 6.25 µg/ml (inhibition %)” value at CCR-3 [1] is given as 64%.
For the compound `CC[N+](CCCNC(=O)Nc1ccc(Cl)c(Cl)c1)(CCOCCOC)CCc1ccc(Cl)cc1.[I-]` (stereo not drawn) [compound 355], the “Ca^2+ mobilization 1.25 µg/ml (inhibition %)” value on CCR-3 [1] worked out at 63%.
With `COc1ccc(NC(=O)NCCCN(CCCSC)CCc2ccc(Cl)c(Cl)c2)c(OC)c1` [Compound 158], the “Ca^2+ mobilization 6.25 µg/ml (inhibition %)” value on CCR-3 [1] is recorded as 50%.
For `COc1cc(CN(CCCNC(=O)Nc2ccc(Br)cc2)CCC(C)C)cc(OC)c1OC` [Compound 131], the “Ca^2+ mobilization 6.25 µg/ml (inhibition %)” value at CCR-3 [1] is 52%.
Take `CSCCCN(CCCNC(=O)Nc1cccc(C)c1)CCc1ccc(Cl)c(Cl)c1` [Compound 142]: at CCR-3 [1], the “Ca^2+ mobilization 6.25 µg/ml (inhibition %)” value was found to be 58%.
Same read-out and setting: to `O=C(NCCCN(CCOCc1ccccc1)C1CCCc2ccccc21)Nc1ccc(Br)cc1` (stereo not drawn) [Compound 123] belongs 53%.
With `CC[N+](CCCNC(=O)Nc1ccc(OC)cc1)(CCc1ccc(Cl)cc1)CC1CCC1.[I-]` (stereo not drawn) [compound 440], the “Ca^2+ mobilization 1.25 µg/ml (inhibition %)” value at CCR-3 [1] was found to be 62%.
On to `CSCCCN(CCCNC(=O)Nc1ccc(Br)cc1)C1CCCc2ccccc21` (stereo not drawn) [Compound 124], for which, at CCR-3 [1], the “Ca^2+ mobilization 6.25 µg/ml (inhibition %)” value is 55%.
Still for that read-out and setting: to `Cc1ccc(CCN(CCCNC(=O)Nc2cccc(Cl)c2)CCOCc2ccccc2)cc1` [Compound 152] belongs 54%.
On to `CC[N+](CCCNC(=O)Nc1ccc(OC)cc1)(CCc1cccc(Cl)c1)CC1CCC1.[I-]` (stereo not drawn) [compound 441], for which the “Ca^2+ mobilization 1.25 µg/ml (inhibition %)” value on CCR-3 [1] stood at 71%.
For the compound `CCOC(=O)C1CC1CN(CCCNC(=O)Nc1cccc(Cl)c1)Cc1cccs1` (stereo not drawn) [Compound 146], the “Ca^2+ mobilization 6.25 µg/ml (inhibition %)” value on CCR-3 [1] stood at 52%.
`CC[N+](CCCNC(=O)Nc1ccc(C#N)cc1)(CCOCCOC)CCc1ccc(Cl)cc1Cl.[I-]` (stereo not drawn) [compound 395]: the “Ca^2+ mobilization 1.25 µg/ml (inhibition %)” value at CCR-3 [1] is recorded as 69%.
On the same count and under the same terms, as for `CC[N+](CCCNC(=O)Nc1ccc(C#N)cc1)(CCOCCOC)CCc1ccc(Cl)c(Cl)c1.[I-]` (stereo not drawn) [compound 396], the figure is 67%; as for `C=C(C)C[N+](CC)(CCCNC(=O)Nc1ccc(Cl)c(Cl)c1)CCc1ccc(Cl)c(Cl)c1.[I-]` (stereo not drawn) [compound 367], 50%.
With `COc1ccc(CCN(CCCNC(=O)Nc2ccc(Cl)c(C(F)(F)F)c2)CC(C)C)cc1OC` [Compound 96], the “Ca^2+ mobilization 6.25 µg/ml (inhibition %)” value on CCR-3 [1] was determined as 53%.
With `COc1ccc(CCN(CCCNC(=O)Nc2cccc(C)c2)CCCC(=O)O)cc1OC` [Compound 140], on CCR-3 [1], the “Ca^2+ mobilization 6.25 µg/ml (inhibition %)” value amounted to 54%.
In the case of `O=C(O)CCCN(CCCNC(=O)Nc1cccc2ccccc12)Cc1ccc(C(F)(F)F)cc1` [Compound 161], the “Ca^2+ mobilization 6.25 µg/ml (inhibition %)” value at CCR-3 [1] stood at 51%.
On the same count and under the same terms, as for `O=C(NCCCN(CCOCc1ccccc1)Cc1ccc2c(c1)OCO2)Nc1ccc(Br)cc1` [Compound 127], the figure is 59%.
Consider `CC[N+](CCCNC(=O)Nc1ccc(OC)cc1)(CCc1cccc(Cl)c1)CCC(C)C.[I-]` (stereo not drawn) [compound 435], for which the “Ca^2+ mobilization 1.25 µg/ml (inhibition %)” value on CCR-3 [1] is given as 62%.
With `C=C(C)C[N+](CC)(CCCNC(=O)Nc1ccc(C#N)cc1)CCc1ccc(Cl)cc1Cl.[I-]` (stereo not drawn) [compound 400], the “Ca^2+ mobilization 1.25 µg/ml (inhibition %)” value on CCR-3 [1] is reported as 68%.
For the compound `O=C(NCCCN(C[C@@H]1CCCN1)C1CCCc2ccccc21)Nc1ccccc1-c1ccccc1` (stereo partly drawn) [Compound 98], the “Ca^2+ mobilization 6.25 µg/ml (inhibition %)” value on CCR-3 [1] is on record as 51%.
As for `CC[N+](CCCNC(=O)Nc1ccc(OC)cc1)(CCc1ccc(Cl)c(Cl)c1)CCC(C)C.[I-]` (stereo not drawn) [compound 436], on CCR-3 [1], the “Ca^2+ mobilization 1.25 µg/ml (inhibition %)” value came out at 57%.
Same read-out and setting: to `CC[N+](CCCNC(=O)Nc1ccc(C#N)cc1)(CCc1ccc(Cl)cc1Cl)CC1CCC1.[I-]` (stereo not drawn) [compound 398] belongs 70%.
